Values quoted from earlier work in patent publication US10184942B2, “Natriuretic peptide receptor as a biomarker for diagnosis and prognosis of cancer” (UNIVERSITY OF SOUTH FLORIDA, priority 2011, dated 2019).

Tested on: PCa cells
Conditions: in vitro and in mice

Compound: CC[C@H](C)[C@@H]1NC(=O)[C@H](CCCNC(=N)N)NC(=O)[C@H](CC(=O)O)NC(=O)[C@H](CCSC)NC(=O)[C@H](CCCNC(=N)N)NC(=O)CNC(=O)CNC(=O)[C@H](Cc2ccccc2)NC(=O)[C@@H](NC(=O)[C@H](CO)NC(=O)[C@H](CO)NC(=O)[C@H](CCCNC(=N)N)NC(=O)[C@H](CCCNC(=N)N)NC(=O)[C@H](CC(C)C)NC(=O)[C@@H](N)CO)CSSC[C@@H](C(=O)N[C@@H](CC(N)=O)C(=O)N[C@@H](CO)C(=O)N[C@@H](Cc2ccccc2)C(=O)N[C@@H](CCCNC(=N)N)C(=O)N[C@@H](Cc2ccc(O)cc2)C(=O)O)NC(=O)CNC(=O)[C@H](CC(C)C)NC(=O)CNC(=O)[C@H](CO)NC(=O)[C@H](CCC(N)=O)NC(=O)[C@H](C)NC(=O)CNC1=O [ANP, atrial natriuretic peptide]
- proliferation of PCa cells: inhibit the proliferation

Compound: VD: vessel dilator, an ANP prohormone peptide (EVVPPQVLSEPNEEAGAALSPLPEVPPWTGEVSPAQR; Vessel dilator; UniProt P01160 56-92, looked up)
- proliferation of PCa cells: inhibit the proliferation
